Measurements: patent publication US20210252008A1, “BIARYL COMPOSITIONS AND METHODS FOR MODULATING A KINASE CASCADE” (Athenex, Inc., priority 2004, published 2021)

Tests used:
[1] = tested on: c-Src 3T3 cells (NIH 3T3 transfected with human c-Src 527F); test: BrdU cell growth inhibition, c-Src 3T3; type: cell-based, mouse
Experimental: (§1) The GI50s for several of the compounds of the invention were assayed as described herein.
The c-Src 3T3 is a mouse fibroblast NIH 3T3 normal cell line that has been transfected with a point-mutant of human c-Src wherein tyrosine 527 has been converted to a phenylalanine. This mutation results in “constitutively active” c-Src because phosphorylation on tyrosine 527 results in auto-inhibition of Src by having it fold back on its own SH2 domain. With a Phe there, this phosphorylation can't occur and therefore auto-inhibition can't occur. Thus, the always fully active mutant Src then converts the normal mouse fibroblasts into rapidly growing tumor cells. Since the hyperactive Src is the main factor driving growth in these cells (particularly when cultured under low growth serum conditions), compounds active in blocking this growth are thought to work by blocking Src signaling (e.g. as a direct Src kinase inhibitor or as an inhibitor acting somewhere else in the Src signaling cascade). The cells were routinely cultured in DMEM supplemented with Fetal Bovine Serum (2.0% v/V), L-glutamine (2 mM) and Sodium Pyruvate (1 mM).
(§2) In the BrdU Assay for cell growth inhibition, quantitation of cell proliferation was based on the measurement of BrdU incorporation during DNA synthesis. The Cell Proliferation ELISA BrdU assay kit (colorimetric) was obtained from Roche Applied Science and performed as per vendor instructions.
(§3) The growth inhibition (GI) is determined from the formula GI=(T0-Tn×100/T0−CONn) where T0 is the BrdU growth of untreated cells at time “0”, Tn is the BrdU growth of treated cells at day “n” and CONn is the control BrdU growth of control cells at day “n”. The GI50 was extrapolated and the data plotted using XL-Fit 4.0 software.
(§4) For 96 well culture plate experiments, c-Src 3T3 medium was supplemented with 10 mM HEPES buffer. HT-29 cells were seeded in standard tissue culture 96-well plates and c-Src 3T3 cells were seeded in 96-well plates coated with Poly-D-lysine (BIOCOAT™). To increase CO2 diffusion, c-Src 3T3 96-well plates were incubated with their lids raised by 2 mm using sterile rubber caps.
Seeded 96 well plates were allowed to attach overnight for 18-24 hours, either at 37° C. and 5% CO2 for HT-29 or at 37° C. and 10% CO2 for c-Src 3T3. Approx 18-24 hours after seeding, the initial growth of cells (To) was determined for untreated cells using the BrdU assay. Samples were reconstituted in DMSO at 20 mM and intermediate dilutions made using DMEM containing 10% FBS. The final assay concentrations were 1.5% for FBS and 0.05% for DMSO. Samples were added as 10 μL aliquots in triplicate and plates were incubated as above for 72 hours. […] Plates were assayed for BrdU and the data analyzed as above for GI50. […]

[2] = tested on: HT29 cell line (NCI standard human colon carcinoma cell line); test: BrdU cell growth inhibition, HT-29; type: cell-based; settings: HT29 cells
Experimental: as §1
The HT29 cell line is a NCI standard human colon carcinoma cell line. […] HT29 cells were routinely cultured in McCoy's 5A medium supplemented with Fetal Bovine Serum (1.5% v/v) and L-glutamine (2 mM).
as §2, §3, §4
Seeded 96 well plates were allowed to attach overnight for 18-24 hours, either at 37° C. and 5% CO2 for HT-29 or at 37° C. and 10% CO2 for c-Src 3T3. Approx 18-24 hours after seeding, the initial growth of cells (To) was determined for untreated cells using the BrdU assay. Samples were reconstituted in DMSO at 20 mM and intermediate dilutions made using DMEM containing 10% FBS. The final assay concentrations were 1.5% for FBS and 0.05% for DMSO. Samples were added as 10 μL aliquots in triplicate and plates were incubated as above for 72 hours. Negative (vehicle) and positive controls (e.g., AZ (KX-328)) were included. Plates were assayed for BrdU and the data analyzed as above for GI50. […]

[3] = tested on: Chinchillas, noise-induced hearing loss; test: Protection against noise-induced hearing loss; type: in vivo; settings: chinchilla; round window application; 4 kHz band noise 105 dB SPL four hours; day 1, 7, 21; in most cases
Experimental: Chinchillas (N=6) were used in studies of noise-induced hearing loss. The animals' hearing sensitivity was measured using standard electrophysical techniques before the experimental manipulation. […] Animals were anesthetized, the auditory bullae were opened, and the left and right cochleas were visualized. The round window leading to the scala tympani of the cochlea was used as the access point for drug application. Animals were treated with KX1-004, KX1-141, KX1-329 or KX2-328 (a non-ATP competitive inhibitor from Astrazeneca), emulsified in DMSO, in […] of saline solution, which was placed on the round window of one ear. A control solution of 3 mM DMSO in […] of saline solution was placed on the round window of the other ear. The solution was allowed to set on the round window for 30 minutes, then the auditory bullae were closed. […] Following the noise exposure, the animals' hearing was tested at day 1, day 7, and day 21 to determine evoked potential threshold shifts. Permanent threshold shift was assessed at day 21.
FIGS. 10-12 show the average threshold shifts for animals treated with KX1-004, KX1-141, KX1-329 or KX2-328.

[4] = tested on: osteoclast precursors derived from spleen cells; test: Effect on osteoclast formation; type: cell-based; settings: 5 days, RANKL and M-CSF
Experimental: To determine the effect of the compounds on osteoclast formation, the compounds were added to osteoclast precursors derived from spleen cells. For the generation of spleen-derived osteoclasts, spleen cells comprising osteoclast precursors were treated with Rapamycin, KX1-141, KX2-328 (Astrazeneca compound), or KX1-329 for 5 days in the presence of receptor activator of nuclear factor-KB ligand (RANKL) and macrophage colony-stimulating factor (M-CSF). In in vitro murine or human osteoclast models, soluble RANKL enables osteoclast precursors to differentiate in the presence of M-CSF (Quinn, et al.; 1998, Endocrinology, 139, 4424-4427; Jimi, et al.; 1999, J. Immunol., 163, 434-442). The untreated control cells were incubated in the presence of RANKL and M-CSF alone. Rapamycin was used as a positive control for the inhibition of osteoclast formation.
For generating spleen-derived osteoclasts, spleen cells were treated as described above. […] Cells were then stained with the osteoclast marker, tartrate-resistant acid phosphatase (TRAP) to visualize differentiated cells. The numbers of TRAP-positive osteoclasts were counted.

[5] = tested on: osteoclasts on bone slices; test: Effect on bone resorption in vitro (bone slices); type: cell-based
Experimental: To determine the effects of the compounds on osteoclast formation on bone slices, the bone slices were treated with Rapamycin, KX1-141, KX2-328, or KX1-329. […] The number of osteoclasts on the bone slices were counted.
During the resorption of bone, osteoclasts form resorption pits. To determine the effects of the compounds on resorption pit formation on bone slices, the bone slices were treated with Rapamycin, KX1-141, KX2-328, or KX1-329, as described above. […] The number of resorption pits on the bone slices was determined.
Bone slices were treated as indicated above. […] The bone slices were then stained with TRAP.
Bone slices were treated as indicated above. […] The bone slices were stained with Toluidine Blue to reveal resorption pits, which are indicators of osteoclast-mediated resorption of bone.

osteoclasts = test: Effect on osteoclast survival; type: cell-based; settings: 48 hours, RANKL and M-CSF
Experimental: To determine the effect of the compounds on osteoclast survival, osteoclasts were treated with Rapamycin, KX1-141, KX2-328, or KX1-329 for 48 hours in the presence of RANKL and M-CSF. The untreated, control cells were incubated in the presence of RANKL and M-CSF alone. Rapamycin was used as a positive control for the inhibition of osteoclast survival.
As described above, osteoclasts were treated with Rapamycin, KX1-141, KX2-328, or KX1-329 for 48 hours in the presence of RANKL and M-CSF. […] Cells were then stained with TRAP and the number of TRAP-positive osteoclasts were counted.

[6] = tested on: Guinea pigs, cisplatin-induced hearing loss; test: Protection against cisplatin-induced hearing loss; type: in vivo; settings: guinea pig; subcutaneous, prior to cisplatin; FIG. 15
Experimental: The effects of high level noise and ototoxic drugs, such as cisplatin or the class of aminoglycosides, share several common features in the inner ear. First, the noise and/or drugs alter the free radi cal/anti oxidant levels in the cochlea (inner ear). […] Guinea pigs (N=7) were used in studies of cisplatin-induced hearing loss. The animals' hearing sensitivity was measured using standard electrophysical techniques before the experimental manipulation. […] Animals were anesthetized and treated with cisplatin. Subsequently, the animals' hearing was tested to determine evoked potential threshold shifts.
Animals were treated subcutaneously with KX1-004 prior to the cisplatin-induced hearing loss.

CN1CCN(Cc2ccc(-c3ccc(CC(=O)NCc4cccc(F)c4)nc3)cc2)CC1 [KX2-376]
GI50 ([1]; NIH3T3): > 16 nM

O=C(Cc1ccc(-c2ccccc2)c[n+]1[O-])NCc1cccc(F)c1 [KX1-329 N-oxide]
GI50 (HT29) [2]: inactive (HT-29)
GI50 (c-Src 3T3) [1]: inactive (c-Src 3T3);

CC(C)COc1cc(F)cc(CNC(=O)Cc2ccc(-c3ccc(OCCN4CCCCC4)cc3)cn2)c1 [KX2-386]
GI50 (HT29) [2]: inactive (HT-29)

CC(C)COc1cc(F)cc(CNC(=O)Cc2ccc(-c3ccc(OCCN4CCOCC4)cc3)cn2)c1 [KX2-387]
GI50 (c-Src 3T3) [1]: inactive (c-Src 3T3);

CCOc1ccc(-c2ccc(CC(=O)NCc3cccc(F)c3)nc2)c(OCCN2CCCCC2)c1 [KX2-389]
GI50 (c-Src 3T3) [1]: Inactive (c-Src 3T3);

O=C(Cc1ccc(-c2ccccc2)cn1)NCc1cccc(F)c1 [KX1-329]
average dB threshold shifts of treated ears vs control [3]: lower
number of TRAP-positive osteoclasts vs untreated control (formation) ([4]; FIG. 17): reduced the number of TRAP-positive osteoclasts
formation of osteoclasts vs untreated control ([4]; stained, FIG. 16): inhibited the formation of osteoclasts
number of osteoclasts on the bone slices vs untreated control ([5]; FIG. 20A): reduced the number of osteoclasts on the bone slices
number of resorption pits on the bone slices vs untreated control ([5]; FIG. 20B): reduced the number of resorption pits
number of TRAP-positive osteoclasts on the bone slices vs untreated control ([5]; TRAP stain, FIG. 21A): reduced the number of TRAP-positive osteoclasts
number of resorption pits on the bone slices vs untreated control ([5]; Toluidine Blue stain, FIG. 21B): reduced the number of resorption pits
survival of osteoclasts vs untreated control (osteoclasts; FIG. 18): inhibited the survival of osteoclasts
number of TRAP-positive osteoclasts vs untreated control (survival) (osteoclasts; FIG. 19): reduced the number of TRAP-positive osteoclasts

CCOc1ccc(-c2ccc(CC(=O)NCc3cccc(F)c3)nc2)c(OCCN2CCN(C)CC2)c1 [KX2-384]
GI50 (HT29) [2]: inactive (HT-29)

KX1-004
average dB threshold shifts of treated ears vs control [3]: lower
protection against cisplatin-induced hearing loss (median CAP thresholds) [6]: protected against cisplatin-induced hearing loss
